# From ChEMBL document CHEMBL1687697 (ACS Med Chem Lett, 2010)
# pIC50: −log10 of the molar value. The source made the active and inactive calls. The rule behind the calls is not given here.
# What was measured:
# [1] = target: Signal transducer and activator of transcription 3 (Homo sapiens) (UniProt P40763); assay: Inhibition of STAT3 phosphorylation at Tyr705 in human DU145 cells after 24 hrs by Western blot analysis; type: cell-based; settings: DU-145
# [2] = target: Tyrosine-protein kinase ABL1 (Homo sapiens, UniProt P00519); assay: Inhibition of Abl1 after 60 mins by radiometric assay
# DU-145 [3] = assay: Induction of apoptosis in human DU145 cells assessed as early apoptotic cells at 1 uM after 72 hrs by AnnexinV-propidium iodide based FACS flow cytometry; type: functional
# DU-145 [4] = assay: Effect on Src protein level in human DU145 cells at 0.1 to 2 uM after 24 hrs by Western blot analysis; type: functional, cell-based
# DU-145 [5] = assay: Cell cycle arrest in human DU145 cells assessed as accumulation in G0/G1 phase at 0.5 uM after 24 hrs by FACS flow cytometry; type: functional
# DU-145 [6] = assay: Effect on Tyr416 phosphorylated-Src protein level in human DU145 cells at 0.1 to 2 uM after 24 hrs by Western blot analysis; type: functional, cell-based
# DU-145 [7] = assay: Cell cycle arrest in human DU145 cells assessed as accumulation in G2/M phase at 0.5 uM after 24 hrs by FACS flow cytometry; type: functional
# DU-145 [8] = assay: Induction of apoptosis in human DU145 cells assessed as early apoptotic cells at 10 uM after 72 hrs by AnnexinV-propidium iodide based FACS flow cytometry; type: functional
# DU-145 [9] = assay: Effect on phosphorylated JAK1 protein level in human DU145 cells at 0.1 to 2 uM after 2 hrs by Western blot analysis; type: functional, cell-based
# [10] = target: Vascular endothelial growth factor receptor 2 (Homo sapiens, UniProt P35968); assay: Inhibition of VEGFR2 after 60 mins by radiometric assay
# DU-145 [11] = assay: Growth inhibition of human DU145 cells assessed as inhibition of colony formation after 11 to 12 days by crystal violet staining based microscopic analysis; type: functional, cell-based
# [12] = target: Mast/stem cell growth factor receptor Kit (Homo sapiens, UniProt P10721); assay: Inhibition of KIT after 60 mins by radiometric assay
# DU-145 [13] = assay: Induction of apoptosis in human DU145 cells assessed as late apoptotic cells at 5 uM after 72 hrs by AnnexinV-propidium iodide based FACS flow cytometry; type: functional
# DU-145 [14] = assay: Effect on […] phosphorylated-Src protein level in human DU145 cells at 0.1 to 2 uM after 2 hrs by Western blot analysis; type: functional, cell-based
# DU-145 [15] = assay: Effect on Tyr416 phosphorylated-Src protein level in human DU145 cells at 0.1 to 2 uM after 2 hrs by Western blot analysis; type: functional, cell-based
# [16] = target: Serine/threonine-protein kinase B-raf (Homo sapiens, UniProt P15056); assay: Inhibition of B-Raf after 60 mins by radiometric assay
# [17] = target: Tyrosine-protein kinase Lyn (Homo sapiens, UniProt P07948); assay: Inhibition of LYN after 60 mins by radiometric assay
# [18] = target: Signal transducer and activator of transcription 1-alpha/beta (Homo sapiens) (UniProt P42224); assay: Inhibition of STAT1 phosphorylation at Tyr701 after 2 hrs by Western blot analysis
# DU-145 [19] = assay: Effect on Src protein level in human DU145 cells at 0.1 to 2 uM after 2 hrs by Western blot analysis; type: functional, cell-based
# DU-145 [20] = assay: Antiproliferative activity against human DU145 cells after 72 hrs by MTT assay; type: functional, cell-based; settings: DU-145, 72 h
# DU-145 [21] = assay: Induction of apoptosis in human DU145 cells assessed as late apoptotic cells at 10 uM after 72 hrs by AnnexinV-propidium iodide based FACS flow cytometry; type: functional
# [22] = target: RAC-alpha serine/threonine-protein kinase (Homo sapiens, UniProt P31749); assay: Inhibition of Akt1 after 60 mins by radiometric assay
# DU-145 [23] = assay: Effect on JAK1 protein level in human DU145 cells at 0.1 to 2 uM after 2 hrs by Western blot analysis; type: functional, cell-based
# [24] = target: Signal transducer and activator of transcription 5A (Homo sapiens) (UniProt P42229); assay: Inhibition of STAT5 phosphorylation at Tyr694 after 2 hrs by Western blot analysis
# DU-145 [25] = assay: Induction of apoptosis in human DU145 cells assessed as early apoptotic cells at 5 uM after 72 hrs by AnnexinV-propidium iodide based FACS flow cytometry; type: functional
# A-431 = assay: Antiproliferative activity against human A431 cells after 72 hrs by MTT assay; type: functional, cell-based; settings: A-431, 72 h
# [26] = target: Glycogen synthase kinase-3 beta (Homo sapiens, UniProt P49841); assay: Inhibition of GSK3-beta after 60 mins by radiometric assay
# DU-145 [27] = assay: Induction of apoptosis in human DU145 cells assessed as necrotic cells at 5 uM after 72 hrs by AnnexinV-propidium iodide based FACS flow cytometry; type: functional
# DU-145 [28] = assay: Effect on phosphorylated-JAK2 protein level in human DU145 cells at 0.1 to 2 uM after 24 hrs by Western blot analysis; type: functional, cell-based
# [29] = target: Fibroblast growth factor receptor 1 (Homo sapiens, UniProt P11362); assay: Inhibition of FGFR-1 after 60 mins by radiometric assay
# PC-3 = assay: Antiproliferative activity against human PC3 cells after 72 hrs by MTT assay; type: functional, cell-based; settings: PC-3, 72 h
# A549 = assay: Antiproliferative activity against human A549 cells after 72 hrs by MTT assay; type: functional, cell-based; settings: A549, 72 h
# DU-145 [30] = assay: Effect on JAK2 protein level in human DU145 cells at 0.1 to 2 uM after 24 hrs by Western blot analysis; type: functional, cell-based
# DU-145 [31] = assay: Decrease in cyclin D1 protein level in human DU145 cells at 0.1 to 2 uM after 2 hrs by Western blot analysis; type: functional, cell-based
# DU-145 [32] = assay: Induction of apoptosis in human DU145 cells assessed as necrotic cells at 10 uM after 72 hrs by AnnexinV-propidium iodide based FACS flow cytometry; type: functional
# DU-145 [33] = assay: Induction of apoptosis in human DU145 cells assessed as viable cells at 10 uM after 72 hrs by AnnexinV-propidium iodide based FACS flow cytometry; type: functional; settings: DU-145, 72 h, read-out: Activity
# Signal transducer and activator of transcription 3 (Homo sapiens), sequence (P40763 whole entry): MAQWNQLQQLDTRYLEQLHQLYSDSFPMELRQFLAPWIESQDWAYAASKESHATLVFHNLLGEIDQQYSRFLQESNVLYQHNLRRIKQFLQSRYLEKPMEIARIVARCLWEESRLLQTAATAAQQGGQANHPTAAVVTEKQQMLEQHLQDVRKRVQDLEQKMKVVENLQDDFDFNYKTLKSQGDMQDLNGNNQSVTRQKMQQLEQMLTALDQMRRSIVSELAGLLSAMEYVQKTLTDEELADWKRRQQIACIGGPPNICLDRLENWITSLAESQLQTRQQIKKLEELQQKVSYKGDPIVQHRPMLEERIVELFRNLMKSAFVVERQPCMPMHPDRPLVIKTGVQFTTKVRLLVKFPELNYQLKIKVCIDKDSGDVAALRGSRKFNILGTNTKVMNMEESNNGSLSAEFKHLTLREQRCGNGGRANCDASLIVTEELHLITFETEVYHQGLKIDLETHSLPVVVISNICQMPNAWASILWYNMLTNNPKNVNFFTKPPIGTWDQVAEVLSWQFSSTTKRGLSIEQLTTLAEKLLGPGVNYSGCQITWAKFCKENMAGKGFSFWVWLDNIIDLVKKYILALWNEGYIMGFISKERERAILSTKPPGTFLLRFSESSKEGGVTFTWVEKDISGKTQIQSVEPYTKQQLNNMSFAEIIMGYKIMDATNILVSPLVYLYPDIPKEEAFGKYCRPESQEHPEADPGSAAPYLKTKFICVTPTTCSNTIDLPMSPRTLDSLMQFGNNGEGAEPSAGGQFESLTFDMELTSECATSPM
# Mast/stem cell growth factor receptor Kit, sequence (P10721 whole entry): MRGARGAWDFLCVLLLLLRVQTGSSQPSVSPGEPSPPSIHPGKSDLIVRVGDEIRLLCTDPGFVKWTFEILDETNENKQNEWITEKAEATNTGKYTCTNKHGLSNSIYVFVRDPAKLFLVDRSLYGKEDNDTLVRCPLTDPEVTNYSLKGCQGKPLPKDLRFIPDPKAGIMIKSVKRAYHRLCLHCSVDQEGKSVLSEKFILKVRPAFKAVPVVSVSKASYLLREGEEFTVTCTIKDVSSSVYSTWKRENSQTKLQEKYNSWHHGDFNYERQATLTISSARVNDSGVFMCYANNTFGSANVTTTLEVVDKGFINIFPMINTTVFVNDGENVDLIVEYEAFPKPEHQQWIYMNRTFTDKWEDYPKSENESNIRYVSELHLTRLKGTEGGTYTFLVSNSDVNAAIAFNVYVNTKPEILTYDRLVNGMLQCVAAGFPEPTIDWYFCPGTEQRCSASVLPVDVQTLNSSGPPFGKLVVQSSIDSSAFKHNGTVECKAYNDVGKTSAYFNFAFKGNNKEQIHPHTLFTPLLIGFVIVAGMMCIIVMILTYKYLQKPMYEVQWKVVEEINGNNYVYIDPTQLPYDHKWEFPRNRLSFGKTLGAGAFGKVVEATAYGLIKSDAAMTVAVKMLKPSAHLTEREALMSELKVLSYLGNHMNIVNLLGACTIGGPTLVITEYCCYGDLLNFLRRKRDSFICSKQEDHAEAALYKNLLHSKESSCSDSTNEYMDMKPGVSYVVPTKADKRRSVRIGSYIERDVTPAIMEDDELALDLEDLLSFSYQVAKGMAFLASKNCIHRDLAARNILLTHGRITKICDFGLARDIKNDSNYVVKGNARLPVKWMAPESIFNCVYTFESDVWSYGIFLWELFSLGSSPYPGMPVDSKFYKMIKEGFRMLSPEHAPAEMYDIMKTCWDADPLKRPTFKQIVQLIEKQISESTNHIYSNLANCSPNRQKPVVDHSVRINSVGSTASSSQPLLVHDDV
# RAC-alpha serine/threonine-protein kinase, sequence (P31749 whole entry): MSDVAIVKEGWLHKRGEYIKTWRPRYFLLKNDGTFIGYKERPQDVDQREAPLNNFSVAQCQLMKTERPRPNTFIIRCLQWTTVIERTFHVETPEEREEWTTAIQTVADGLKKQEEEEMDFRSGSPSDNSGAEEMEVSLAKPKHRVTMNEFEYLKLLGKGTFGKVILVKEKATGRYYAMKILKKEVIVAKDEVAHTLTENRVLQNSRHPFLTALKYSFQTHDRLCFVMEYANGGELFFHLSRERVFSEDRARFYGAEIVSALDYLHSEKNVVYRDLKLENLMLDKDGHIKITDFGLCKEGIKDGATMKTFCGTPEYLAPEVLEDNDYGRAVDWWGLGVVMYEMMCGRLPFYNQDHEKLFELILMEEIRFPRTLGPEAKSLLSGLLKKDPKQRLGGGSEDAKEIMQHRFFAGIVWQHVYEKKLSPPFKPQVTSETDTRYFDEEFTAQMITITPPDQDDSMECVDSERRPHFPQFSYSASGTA
# Signal transducer and activator of transcription 5A (Homo sapiens), sequence (P42229 whole entry): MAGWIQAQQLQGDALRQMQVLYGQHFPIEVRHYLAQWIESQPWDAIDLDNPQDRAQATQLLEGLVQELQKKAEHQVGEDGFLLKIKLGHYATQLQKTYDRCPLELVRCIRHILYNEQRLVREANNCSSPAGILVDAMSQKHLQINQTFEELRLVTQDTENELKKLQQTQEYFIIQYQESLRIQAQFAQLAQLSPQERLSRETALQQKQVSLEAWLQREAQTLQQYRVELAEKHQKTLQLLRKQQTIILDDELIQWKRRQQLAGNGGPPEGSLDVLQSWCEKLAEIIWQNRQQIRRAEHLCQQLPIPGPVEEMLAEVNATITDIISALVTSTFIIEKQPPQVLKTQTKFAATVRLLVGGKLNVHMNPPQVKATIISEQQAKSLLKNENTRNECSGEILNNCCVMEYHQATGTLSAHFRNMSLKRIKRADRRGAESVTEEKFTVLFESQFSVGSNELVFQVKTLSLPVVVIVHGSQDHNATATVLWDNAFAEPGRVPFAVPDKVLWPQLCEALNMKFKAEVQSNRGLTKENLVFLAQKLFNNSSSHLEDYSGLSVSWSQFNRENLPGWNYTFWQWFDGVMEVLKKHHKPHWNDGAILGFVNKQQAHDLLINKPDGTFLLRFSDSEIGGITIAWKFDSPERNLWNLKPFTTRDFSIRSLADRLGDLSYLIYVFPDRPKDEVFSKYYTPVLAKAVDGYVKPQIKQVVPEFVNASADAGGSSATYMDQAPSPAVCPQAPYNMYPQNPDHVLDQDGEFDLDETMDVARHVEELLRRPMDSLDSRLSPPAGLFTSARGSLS
# Fibroblast growth factor receptor 1, sequence (P11362 whole entry): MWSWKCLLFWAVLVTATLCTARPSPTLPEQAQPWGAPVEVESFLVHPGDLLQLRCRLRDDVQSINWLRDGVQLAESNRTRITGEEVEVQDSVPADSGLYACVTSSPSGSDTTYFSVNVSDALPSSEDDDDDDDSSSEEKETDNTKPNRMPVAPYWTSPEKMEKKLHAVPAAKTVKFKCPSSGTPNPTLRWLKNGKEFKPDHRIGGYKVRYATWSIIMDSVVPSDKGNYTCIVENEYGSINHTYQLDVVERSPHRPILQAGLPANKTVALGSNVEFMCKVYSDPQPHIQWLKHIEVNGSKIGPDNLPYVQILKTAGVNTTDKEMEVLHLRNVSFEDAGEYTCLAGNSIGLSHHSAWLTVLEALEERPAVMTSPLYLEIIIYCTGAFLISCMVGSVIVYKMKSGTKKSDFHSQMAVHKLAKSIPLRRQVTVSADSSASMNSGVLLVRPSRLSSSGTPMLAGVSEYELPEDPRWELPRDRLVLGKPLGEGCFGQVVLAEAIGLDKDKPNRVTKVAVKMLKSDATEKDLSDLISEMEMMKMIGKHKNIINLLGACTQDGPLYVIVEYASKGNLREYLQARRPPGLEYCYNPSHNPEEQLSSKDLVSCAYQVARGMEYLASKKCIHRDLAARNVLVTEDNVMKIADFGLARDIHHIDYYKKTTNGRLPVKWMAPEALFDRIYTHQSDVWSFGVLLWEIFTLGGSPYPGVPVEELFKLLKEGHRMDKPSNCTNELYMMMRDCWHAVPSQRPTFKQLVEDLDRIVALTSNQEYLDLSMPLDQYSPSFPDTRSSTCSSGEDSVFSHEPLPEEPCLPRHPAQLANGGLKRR
# Tyrosine-protein kinase ABL1, sequence (P00519 whole entry): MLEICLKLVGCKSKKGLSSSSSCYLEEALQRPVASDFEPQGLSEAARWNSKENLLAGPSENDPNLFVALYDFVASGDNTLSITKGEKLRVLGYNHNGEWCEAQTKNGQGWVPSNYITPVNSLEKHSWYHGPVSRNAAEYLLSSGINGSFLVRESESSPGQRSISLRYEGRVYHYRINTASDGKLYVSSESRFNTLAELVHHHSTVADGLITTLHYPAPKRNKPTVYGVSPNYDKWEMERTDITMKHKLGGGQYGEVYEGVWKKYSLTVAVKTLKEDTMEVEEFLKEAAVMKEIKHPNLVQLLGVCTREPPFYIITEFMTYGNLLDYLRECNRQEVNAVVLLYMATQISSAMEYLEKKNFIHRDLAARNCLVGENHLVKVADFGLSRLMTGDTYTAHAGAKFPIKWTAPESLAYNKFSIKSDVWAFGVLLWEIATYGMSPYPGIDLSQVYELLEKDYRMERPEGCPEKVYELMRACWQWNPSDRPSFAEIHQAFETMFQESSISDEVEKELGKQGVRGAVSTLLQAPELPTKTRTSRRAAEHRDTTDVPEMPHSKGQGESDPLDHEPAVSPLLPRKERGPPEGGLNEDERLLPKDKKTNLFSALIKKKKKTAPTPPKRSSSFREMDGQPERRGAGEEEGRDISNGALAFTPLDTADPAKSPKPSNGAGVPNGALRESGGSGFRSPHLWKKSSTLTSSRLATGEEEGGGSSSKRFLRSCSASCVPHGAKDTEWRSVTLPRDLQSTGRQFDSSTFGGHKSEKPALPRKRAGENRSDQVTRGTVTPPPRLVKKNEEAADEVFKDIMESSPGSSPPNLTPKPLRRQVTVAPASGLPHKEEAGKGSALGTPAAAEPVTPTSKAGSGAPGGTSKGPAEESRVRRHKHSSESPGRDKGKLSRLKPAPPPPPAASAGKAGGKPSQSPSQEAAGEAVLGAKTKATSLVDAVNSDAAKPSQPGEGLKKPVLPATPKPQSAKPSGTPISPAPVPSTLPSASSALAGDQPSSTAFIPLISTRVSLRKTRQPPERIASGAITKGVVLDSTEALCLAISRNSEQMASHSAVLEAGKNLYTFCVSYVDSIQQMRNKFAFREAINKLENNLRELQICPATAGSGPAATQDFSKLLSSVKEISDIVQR
compound,measurement,setting,value
O=C(Nc1ccc([N+](=O)[O-])cc1Cl)c1cc(Cl)ccc1O [NICLOSAMIDE],inhibition,[1],Dose-dependent effect
same,pIC50,[2],< 4.00
same,Activity,DU-145 [3],4.84%
same,Activity,DU-145 [4],inactive
same,Activity,DU-145 [5],57.4%
same,Activity,DU-145 [6],inactive
same,Activity,DU-145 [7],9.76%
same,Activity,DU-145 [8],15.42%
same,Activity,DU-145 [9],inactive
same,pIC50,[10],4.64
same,pIC50,DU-145 [11],6.15
same,pIC50,[12],4.56
same,Activity,DU-145 [13],25.41%
same,Activity,DU-145 [14],inactive
same,Activity,DU-145 [15],inactive
same,pIC50,[16],< 4.00
same,pIC50,[17],4.62
same,inhibition,[18],inactive
same,Activity,DU-145 [19],inactive
same,pIC50,DU-145 [20],6.15
same,Activity,DU-145 [21],38.72%
same,pIC50,[22],4.23
same,Activity,DU-145 [23],inactive
same,inhibition,[24],inactive
same,Activity,DU-145 [25],10.44%
same,pIC50,A-431,5.06
same,pIC50,[26],4.11
same,Activity,DU-145 [27],2.27%
same,Activity,DU-145 [28],inactive
same,pIC50,[29],4.88
same,pIC50,PC-3,4.93
same,pIC50,A549,5.52
same,Activity,DU-145 [30],inactive
same,Activity,DU-145 [31],Active
same,Activity,DU-145 [32],2.43%
same,viability at 10 µM,DU-145 [33],43.4%
